# Experimental data reported in article PMC9495262, “In Vitro Antiparasitic Activities of Monovalent Ionophore Compounds for Human and Canine Leishmaniases” (Animals : an Open Access Journal from MDPI, 2022).
# Read-outs that look alike come from different tables or passages of the source.
# Legend:
# [1] = tested on: L. infantum promastigotes; test: Leishmania promastigote viability assay (MTT), L. infantum; type: cell-based; details: mean ± SD of three experiments in duplicate
# Description: (§1) Promastigote stages of L. infantum strain (MHOM/TN/80/IPT1) (WHO international reference strain, kindly provided by Dr. M. Gramiccia and Dr. T. Di Muccio, ISS, Roma, Italy), and clinical isolates of L. tropica (MHOM/SY/2012/ISS3130) and L. braziliensis (MHOM/PE/2006/ISS2848) (kindly provided by Dr. R. Grande, Sacco Hospital, Milan, Italy), were cultured in Schneider’s Drosophila medium (Lonza) supplemented with 2 mM L-glutamine and 10% heat-inactivated FBS (HyClone) at 24 °C.
# (§2) To estimate the 50% inhibitory concentration (IC50) of compounds on both cells and Leishmania promastigotes, the MTT (3-[4,5-dimethylthiazol-2-yl]-2,5-diphenyltetrazolium bromide) assay was used with minor modifications. Briefly, monensin and nigericin were dissolved in ethanol (10 mg/mL), and salinomycin and amphotericin B in DMSO (10 mg/mL). All compounds were then diluted with medium to achieve the required concentrations (final DMSO or ethanol concentration <1%, non-toxic to the parasite or cells). The complete medium used for the antileishmanial activity assay was RPMI 1640 (EuroClone) supplemented with 10% heat-inactivated FBS (EuroClone), 20 mM HEPES, and 2 mM L -glutamine. Drugs were added to 96-well round-bottom microplates and seven serial dilutions were performed. Amphotericin B was used as the reference anti-Leishmania drug. Subsequently, 100 μL of the parasite suspension (5 × 10^6 parasites/mL) was dispensed into the plates. After 72h of incubation at 24 °C, 20 μL of MTT solution (5 mg/mL in PBS) was added into each well. After 3 h in the dark, the plates were centrifuged, the supernatants discarded, and the formazan crystals in the pellet dissolved in 100 μL of lysing buffer (20% w/v of a solution of SDS -Merck-, and 40% of N,N-dimethylformamide -Merck- in H2O).
# (§3) For cell cytotoxicity experiments, 100 μL (5 × 10 ^5 cells/mL) of THP-1 cells were plated in 96-well flat-bottom microplates and treated with 0.1 µM phorbol myristate acetate (PMA, Merck, Kenilworth, NJ, USA) for 72 h to achieve differentiation into macrophages. Cells were then treated with different drug concentrations (60–0.4 µM). After 72 h, 20 μL of the MTT solution was added into each well. After 3 h in the dark, the supernatants were discarded and the formazan crystals dissolved in 100 μL of the same lysing buffer described above. The absorbance was then measured spectrophotometrically at 550 nm (reference wavelength 650 nm). The results are expressed as IC50, which is the dose of compound necessary to inhibit parasite and cell growth by 50%. The IC50 values were extrapolated from nonlinear regression analysis of the concentration–response curve using the software Gen5 1.10 provided with the Synergy 4 (BioTek, Winooski, VT, USA) reader. Data are the mean ± standard deviation of individual experiments performed in duplicate.
# [2] = tested on: L. braziliensis promastigotes; test: Leishmania promastigote viability assay (MTT), L. braziliensis; type: cell-based; details: mean ± SD of three experiments in duplicate
# Description: as §1, §2, §3
# [3] = tested on: L. tropica promastigotes; test: Leishmania promastigote viability assay (MTT), L. tropica; type: cell-based; details: mean ± SD of three experiments in duplicate
# Description: as §1, §2, §3
# [4] = Cytotoxicity (MTT) on PMA-differentiated THP-1 macrophages; type: cell-based; details: human
# Description: THP-1 cells (human acute monocytic leukemia cell line) were maintained in Roswell Park Memorial Institute (RPMI) 1640 medium supplemented with 10% fetal bovine serum (FBS, EuroClone), 50 µM 2-mercaptoethanol, 20 mM HEPES, and 2 mM L-glutamine, at 37 °C in 5% CO2.
# as §3
# [5] = tested on: L. infantum intracellular amastigotes; test: Intracellular amastigote susceptibility assay in human dTHP-1 (Giemsa counting); type: cell-based, Leishmania infantum; details: for IC50: Leishmania infantum, read-out: Amastigotes IC50; for SI (Selectivity index = IC50 dTHP-1/IC50 amastigotes): ratio of cytotoxicity on dTHP-1 to activity on L. infantum amastigotes
# Description: For Leishmania spp. infections, 100 μL of THP-1 cells (5 × 10^5 cells/mL) or canine macrophages (2 × 10^6 cells/mL) were plated in 16-chamber Lab-Tek culture slides (Nunc) and further treated with 0.1 µM of PMA for 72 h to achieve differentiation into macrophages. Cells were then washed with PBS and infected with stationary phase L. infantum promastigotes at a macrophage:promastigote ratio of 1:10. After 24 h, cell monolayers were extensively washed with PBS to remove non-internalized promastigotes and observed under an inverted light microscope to evaluate both the cellular size and the cellular morphology. Infected cells were then incubated in the presence of test compounds for 72 h. Infected and/or treated cells were then fixed with 100% methanol and stained with Giemsa at room temperature. The percentage of infected macrophages in treated and non-treated wells was determined by counting 200–300 macrophages/well under a light microscope. About 10 random microscopic fields/well were observed. The number of infected macrophages in the untreated control samples was considered 100% for calculating the percentage of infection in drug treated samples. IC50 values were then calculated. Data are the mean ± standard deviation of individual experiments performed in triplicate.
# Next, human macrophages (dTHP-1) were infected with stationary-phase promastigotes of L. infantum at a cell:promastigote ratio of 1:10 for 24 h, and allowed to differentiate into intracellular parasite forms. After the removal of free promastigotes, the infected macrophages were incubated for 72 h in the presence of the ionophores at different concentrations. A significant reduction in the number of infected macrophages was observed after treatment with all the compounds tested. The inhibition was dose-dependent with IC50s between 1 and 2 µM (Table 3).
# [6] = in vitro; type: cell-based; details: human
# Description: as §3
# Non-infected human macrophages (PMA-differentiated THP-1, dTHP-1) and human dermal fibroblasts (HDF) were incubated in the presence of different concentrations of ionophores to determine the nontoxic concentration for mammalian cells.
# [7] = tested on: all Leishmania spp. promastigotes; test: Promastigote viability assay, all Leishmania species tested (summary statements); type: cell-based; details: read-out: IC50 against all Leishmania spp. promastigotes tested
# Description: as §1
# as §2, with “After 3 h in the dark, the plates were centrifuged, the supernatants discarded, and the formazan crystals in the pellet dissolved in 100 μL of lysing buffer (20% w/v of a solution of SDS -Merck-, and 40% of N,N-dimethylformamide -Merck- in H2O).” left out
# For cell cytotoxicity experiments, 100 μL (5 × 10 ^5 cells/mL) of THP-1 cells were plated in 96-well flat-bottom microplates and treated with 0.1 µM phorbol myristate acetate (PMA, Merck, Kenilworth, NJ, USA) for 72 h to achieve differentiation into macrophages. […] The absorbance was then measured spectrophotometrically at 550 nm (reference wavelength 650 nm). […] The IC50 values were extrapolated from nonlinear regression analysis of the concentration–response curve using the software Gen5 1.10 provided with the Synergy 4 (BioTek, Winooski, VT, USA) reader. […]
# [8] = tested on: L. donovani intracellular amastigotes; design: method as in PMID 21358812; details: read-out: IC50 against intracellular amastigotes, ex vivo splenic explant model of L. donovani infection; cited from earlier work
# [9] = tested on: promastigotes of L. donovani; design: method as in PMID 12864731; details: previous work; read-out: IC50 against promastigotes of L. donovani; cited from earlier work
# [10] = Leishmania infantum, MTT assay after 72 h of treatment, read-out: IC50 against L. infantum promastigotes
# [11] = Leishmania braziliensis, MTT assay after 72 h of treatment, read-out: IC50 against L. braziliensis promastigotes
# [12] = Leishmania tropica, MTT assay after 72 h of treatment, read-out: IC50 against L. tropica promastigotes
# [13] = non-infected PMA-differentiated THP-1 macrophages (dTHP-1), non-infected PMA-differentiated THP-1, MTT assay after 72 h of treatment, read-out: CC50 dTHP-1
# [14] = L. infantum-infected dTHP-1 treated for 72 h, Giemsa, percentage of infected cells
# [15] = L. infantum, L. tropica and L. braziliensis promastigotes, summary statement
SMILES,"IC50 [1, 10]","IC50 [2, 11]","IC50 [3, 12]","CC50 at 72 h [4, 13]","IC50 [5, 14]",SI (Selectivity index = IC50 dTHP-1/IC50 amastigotes) [5],CC50 at 72 h [4],CC50 at 72 h [6],"IC50 [7, 15]",IC50 [8],"IC50 ([1]; Leishmania infantum, 72 h, read-out: IC50 against L. infantum promastigotes, MTT assay after 72 h of treatment)","IC50 ([1]; read-out: IC50 against L. infantum promastigotes, MTT assay after 72 h of treatment)","IC50 ([2]; Leishmania braziliensis, 72 h, read-out: IC50 against L. braziliensis promastigotes, MTT assay after 72 h of treatment)","IC50 ([2]; read-out: IC50 against L. braziliensis promastigotes, MTT assay after 72 h of treatment)","IC50 ([3]; Leishmania tropica, 72 h, read-out: IC50 against L. tropica promastigotes, MTT assay after 72 h of treatment)","IC50 ([3]; read-out: IC50 against L. tropica promastigotes, MTT assay after 72 h of treatment)",IC50 ([5]; 72 h),IC50 [7],IC50 [9]
C[C@@H]1[C@H](O)[C@@H](C)/C=C/C=C/C=C/C=C/C=C/C=C/C=C/[C@H](O[C@@H]2O[C@H](C)[C@@H](O)[C@H](N)[C@@H]2O)C[C@@H]2O[C@](O)(C[C@@H](O)C[C@@H](O)[C@H](O)CC[C@@H](O)C[C@@H](O)CC(=O)O[C@H]1C)C[C@H](O)[C@H]2C(=O)O [Amphotericin B],120 ± 20 nM,80 ± 20 nM,100 ± 20 nM,> 20000 nM,180 ± 30 nM,>111.1,–,–,–,–,–,–,–,–,–,–,–,–,–
"CC[C@@]1([C@@H]2O[C@@H]([C@H]3O[C@@](O)(CO)[C@H](C)C[C@@H]3C)C[C@@H]2C)CC[C@H]([C@]2(C)CC[C@]3(C[C@H](O)[C@@H](C)[C@@H]([C@@H](C)[C@@H](OC)[C@H](C)C(=O)O)O3)O2)O1 [Monensin, monensin]",630 ± 110 nM,270 ± 130 nM,350 ± 170 nM,–,1670 ± 430 nM,>35.9,> 60000 nM,> 60000 nM,< 1000 nM,850 nM,–,–,–,–,–,–,–,–,–
"CO[C@@H]1C[C@@H](C[C@H]2CC[C@H](C)[C@H]([C@@H](C)C(=O)O)O2)O[C@]2(O[C@](C)([C@H]3CC[C@@](C)([C@@H]4O[C@@H]([C@H]5O[C@@](O)(CO)[C@H](C)C[C@@H]5C)C[C@@H]4C)O3)C[C@H]2C)[C@@H]1C [Nigericin, nigericin]",370 ± 40 nM,780 ± 80 nM,230 ± 50 nM,–,1790 ± 830 nM,>33.5,> 60000 nM,> 60000 nM,< 1000 nM,–,–,–,–,–,–,–,–,–,–
"CC[C@@H](C(=O)[C@@H](C)[C@@H](O)[C@H](C)[C@@H]1O[C@@H]([C@@H](CC)C(=O)O)CC[C@@H]1C)[C@H]1O[C@]2(C=C[C@@H](O)[C@]3(CC[C@@](C)([C@H]4CC[C@](O)(CC)[C@H](C)O4)O3)O2)[C@H](C)C[C@@H]1C [Salinomycin, salinomycin]",–,–,–,32100 ± 5300 nM,–,16.6,–,> 60000 nM,–,–,~8000 nM,7980 ± 640 nM,~5000 nM,5080 ± 1740 nM,~5000 nM,4530 ± 600 nM,1930 ± 100 nM,> 4000 nM,~1700 nM
